Consider 14 molecules from patent US20250145642A1, “BICYCLIC HETEROARENES AND METHODS OF THEIR USE” (Kineta, Inc., priority 2021, published 2025).

Broadly, the IC50 is the concentration at which inhibition is half-maximal.

Each structure is given as a SMILES string.

For this test, the target named is full-length human PIKFYVE (N-terminal GST-fusion) (Homo sapiens (Human), UniProt Q9Y2I7, L932S/Q1183K/Q995L/S1033A/S696N/T998S). Nature of the test: PIKfyve biochemical assay (ADP-Glo Kinase assay, Carna Biosciences). To be noted: ADP-Glo, full-length human GST-PIKFYVE, 10 μM to 3 nM; read-out: hPIKfyve IC50.
Chain of full-length human PIKFYVE (N-terminal GST-fusion) (Q9Y2I7 whole entry S696N/L932S/Q995L/T998S/S1033A/Q1183K, the tested form may be a part): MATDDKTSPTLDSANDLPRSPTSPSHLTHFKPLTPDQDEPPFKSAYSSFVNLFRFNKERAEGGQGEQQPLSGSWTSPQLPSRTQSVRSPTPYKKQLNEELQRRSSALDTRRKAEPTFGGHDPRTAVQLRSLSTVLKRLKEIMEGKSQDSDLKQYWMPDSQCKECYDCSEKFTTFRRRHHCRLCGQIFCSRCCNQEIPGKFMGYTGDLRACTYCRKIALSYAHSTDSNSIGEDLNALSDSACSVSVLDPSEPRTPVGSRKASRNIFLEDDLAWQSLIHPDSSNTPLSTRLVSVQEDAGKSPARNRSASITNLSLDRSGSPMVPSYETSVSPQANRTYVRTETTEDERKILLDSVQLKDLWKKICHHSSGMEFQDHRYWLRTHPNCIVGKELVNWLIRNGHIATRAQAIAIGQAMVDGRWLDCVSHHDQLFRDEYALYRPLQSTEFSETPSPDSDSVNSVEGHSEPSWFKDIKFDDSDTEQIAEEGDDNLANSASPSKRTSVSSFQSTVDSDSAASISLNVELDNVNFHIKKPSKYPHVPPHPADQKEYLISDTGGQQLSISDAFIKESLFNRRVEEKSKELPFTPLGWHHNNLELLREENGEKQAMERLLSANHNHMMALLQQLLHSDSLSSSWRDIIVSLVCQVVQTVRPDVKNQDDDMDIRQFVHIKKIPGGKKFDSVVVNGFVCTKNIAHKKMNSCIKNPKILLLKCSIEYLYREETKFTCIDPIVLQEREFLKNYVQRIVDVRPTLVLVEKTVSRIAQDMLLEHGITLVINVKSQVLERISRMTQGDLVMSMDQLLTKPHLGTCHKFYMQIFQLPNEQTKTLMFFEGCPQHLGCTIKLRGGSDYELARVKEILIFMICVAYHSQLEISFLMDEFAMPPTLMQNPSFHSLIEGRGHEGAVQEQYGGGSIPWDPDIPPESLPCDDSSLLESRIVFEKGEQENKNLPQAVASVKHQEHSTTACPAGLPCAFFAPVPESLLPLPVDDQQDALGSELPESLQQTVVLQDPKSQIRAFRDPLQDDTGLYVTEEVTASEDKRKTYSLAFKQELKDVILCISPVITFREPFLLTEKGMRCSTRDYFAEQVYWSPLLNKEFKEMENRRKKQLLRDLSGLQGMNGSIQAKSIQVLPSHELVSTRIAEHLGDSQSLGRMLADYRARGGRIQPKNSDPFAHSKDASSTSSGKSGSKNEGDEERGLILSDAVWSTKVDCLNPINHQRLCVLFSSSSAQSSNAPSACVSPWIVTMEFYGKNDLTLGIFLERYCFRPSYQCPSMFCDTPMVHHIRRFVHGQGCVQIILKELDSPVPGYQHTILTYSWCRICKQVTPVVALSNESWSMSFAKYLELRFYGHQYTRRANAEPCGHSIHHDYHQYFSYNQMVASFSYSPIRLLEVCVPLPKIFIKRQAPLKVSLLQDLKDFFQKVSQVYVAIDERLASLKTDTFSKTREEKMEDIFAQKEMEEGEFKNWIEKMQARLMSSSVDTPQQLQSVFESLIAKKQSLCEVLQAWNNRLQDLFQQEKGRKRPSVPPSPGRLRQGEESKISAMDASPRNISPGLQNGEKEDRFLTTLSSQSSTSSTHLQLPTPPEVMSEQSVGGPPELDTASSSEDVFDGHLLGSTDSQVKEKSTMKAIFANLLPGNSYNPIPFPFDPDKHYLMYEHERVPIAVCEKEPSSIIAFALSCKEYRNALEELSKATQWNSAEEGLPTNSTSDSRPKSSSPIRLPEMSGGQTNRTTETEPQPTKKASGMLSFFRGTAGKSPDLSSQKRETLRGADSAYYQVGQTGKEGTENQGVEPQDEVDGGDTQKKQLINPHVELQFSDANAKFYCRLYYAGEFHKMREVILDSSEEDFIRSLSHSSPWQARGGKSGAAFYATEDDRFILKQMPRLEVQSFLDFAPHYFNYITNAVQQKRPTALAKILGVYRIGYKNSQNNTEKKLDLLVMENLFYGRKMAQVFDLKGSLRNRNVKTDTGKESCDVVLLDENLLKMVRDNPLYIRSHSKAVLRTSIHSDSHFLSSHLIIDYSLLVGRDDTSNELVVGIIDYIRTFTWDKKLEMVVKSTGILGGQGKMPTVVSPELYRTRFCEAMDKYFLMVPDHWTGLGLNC
Description: (§1) PIKfyve Biochemical Assay. The biochemical PIKfyve inhibition assays were run by Carna Biosciences according to proprietary methodology based on the Promega ADP-Glo™ Kinase assay. A full-length human PIKFYVE [1-2098(end) amino acids and S696N, L932S, Q995L, T998S, S1033A and Q1183K of the protein having the sequence set forth in NCBI Reference Sequence No. NP_055855.2] was expressed as N-terminal GST-fusion protein (265 kDa) using baculovirus expression system. GST-PIKFYVE was purified by using glutathione sepharose chromatography and used in an ADP-Glo™ Kinase assay (Promega). Reactions were set up by adding the test compound solution, substrate solution, ATP solution and kinase solution, each at 4× final concentrations. Reactions were prepared with assay buffer (50 mM MOPS, 1 mM DTT, pH7.2), mixed, and incubated in black 384 well polystyrene plates for 1 hour at room temperature. ADP-Glo™ reagent was then added for 40 minutes, followed by kinase detection reagent for an additional 40 minutes. The kinase activity was evaluated by detecting relative light units on a luminescence plate reader. Samples were run in duplicate from 10 μM to 3 nM. […] IC50 values were calculated from concentration vs % inhibition curves by fitting to a four-parameter logistic curve.
as §1, with “The” for “PIKfyve Biochemical Assay. The”, “accession number” for “the protein having the sequence set forth in NCBI Reference Sequence No.”, “curve. […]” for “curve.”
As for `c1cncc(N2CCc3c(OCCC4CCCO4)nc(N4CCOCC4)nc32)c1` (centres unmarked) [Compound 31, 4-(7-(pyridin-3-yl)-4-(2-(tetrahydrofuran-2-yl)ethoxy)-6,7-dihydro-5H-pyrrolo[2,3-d]pyrimidin-2-yl)morpholine], the concentration for half-maximal inhibition (IC50) fell in the range of 10 to 100 nM.

Take `c1cncc(COc2nc(N3CCOCC3)nc3c2CCN3c2cccnc2)c1` [Compound 32, 4-(7-(pyridin-3-yl)-4-(pyridin-3-ylmethoxy)-6,7-dihydro-5H-pyrrolo[2,3-d]pyrimidin-2-yl)morpholine]: the IC50 was 100 to 1000 nM.

In the case of `CC(C)(C)OC(=O)N1CCC(COc2nc(N3CCOCC3)nc3c2CCN3c2cccnc2)C1` (centres unmarked) [Compound 33, tert-butyl 3-(((2-morpholino-7-(pyridin-3-yl)-6,7-dihydro-4H-pyrrolo[2,3-d]pyrimidin-4-yl)oxy)methyl)pyrrolidine-1-carboxylate], the IC50 lay within 100 to 1000 nM.

Turning to `c1cncc(N2CCc3c(OCC4CCNC4)nc(N4CCOCC4)nc32)c1` (centres unmarked) [Compound 34, 4-(7-(pyridin-3-yl)-4-(pyrrolidin-3-ylmethoxy)-6,7-dihydro-5H-pyrrolo[2,3-d]pyrimidin-2-yl)morpholine], the IC50 was in the range of 100 to 1000 nM.

For the molecule `CN1CCC(COc2nc(N3CCOCC3)nc3c2CCN3c2cccnc2)C1` (centres unmarked) [Compound 35, 4-(4-((1-methylpyrrolidin-3-yl)methoxy)-7-(pyridin-3-yl)-6,7-dihydro-6H-pyrrolo[2,3-d]pyrimidin-2-yl)morpholine], the IC50 fell in the range of 100 to 1000 nM.

On to `CC(=O)N1CCC(COc2nc(N3CCOCC3)nc3c2CCN3c2cccnc2)C1` (centres unmarked) [Compound 36, 1-(3-(((2-morpholino-7-(pyridin-3-yl)-6,7-dihydro-5H-pyrrolo[2,3-d]pyrimidin-4-yl)oxy)methyl)pyrrolidin-1-yl)ethan-1-one], for which the IC50 was 100 to 1000 nM.

Consider `CC(C)(C)OC(=O)N1CC(COc2nc(N3CCOCC3)nc3c2CCN3c2cccnc2)C1` [Compound 37, tert-butyl 3-(((2-morpholino-7-(pyridin-3-yl)-6,7-dihydro-5H-pyrrolo[2,3-d]pyrimidin-4-yl)oxy)methyl)azetidine-1-carboxylate], for which the IC50 was 100 to 1000 nM.

Consider `c1cncc(N2CCc3c(OCC4CNC4)nc(N4CCOCC4)nc32)c1` [Compound 38, 4-(4-(azetidin-3-ylmethoxy)-7-(pyridin-3-yl)-6,7-dihydro-5H-pyrrolo[2,3-d]pyrimidin-2-yl)morpholine], for which the IC50 was 100 to 1000 nM.

On to `CN1CC(COc2nc(N3CCOCC3)nc3c2CCN3c2cccnc2)C1` [Compound 39, 4-(4-((1-methylazetidin-3-yl)methoxy)-7-(pyridin-3-yl)-6,7-dihydro-5H-pyrrolo[2,3-d]pyrimidin-2-yl)morpholine], for which the IC50 lay within 1000 to 10000 nM.

Consider `CN1CCCC(COc2nc(N3CCOCC3)nc3c2CCN3CC(C)(C)O)C1` (centres unmarked) [Compound 40, 2-methyl-1-(4-((1-methylpiperidin-3-yl)methoxy)-2-morpholino-6H-pyrrolo[2,3-d]pyrimidin-7(6H)-yl)propan-2-ol], for which the half-inhibitory concentration (IC50) is over 10000 nM.

For the molecule `Cc1cccc(CN2CCc3c(Cl)nc(N4CCOCC4)nc32)c1` [Compound 41, 4-(4-chloro-7-(3-methylbenzyl)-6,7-dihydro-5H-pyrrolo[2,3-d]pyrimidin-2-yl)morpholine], the IC50 is over 10000 nM.

With `CN1CCC(N2CCc3c(OCc4cccnc4)nc(N4CCOCC4)nc32)CC1` [Compound 42, 4-(7-(1-methylpiperidin-4-yl)-4-(pyridin-3-ylmethoxy)-6,7-dihydro-5H-pyrrolo[2,3-d]pyrimidin-2-yl)morpholine], the IC50 was over 10000 nM.

Turning to `OCC(O)COc1nc(N2CCOCC2)nc2c1CCN2c1ccccc1` (centres unmarked) [Compound 43, 3-((2-morpholino-7-phenyl-6,7-dihydro-6H-pyrrolo[2,3-d]pyrimidin-4-yl)oxy)propane-1,2-diol], the IC50 was 100 to 1000 nM.

For `c1ccc(N2CCc3c(OCCc4ccccn4)nc(N4CCOCC4)nc32)cc1` [Compound 44, 4-(7-phenyl-4-(2-(pyridin-2-yl)ethoxy)-6,7-dihydro-5H-pyrrolo[2,3-d]pyrimidin-2-yl)morpholine], the IC50 fell in the range of 10 to 100 nM.
